According to ChEMBL document CHEMBL1201862, “PubChem BioAssay data set” (2004):
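Method: 48-hour compound exposure of cells in 96-well plates, five concentrations, linear interpolation of endpoints. GI50 marks 50% less growth.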 Calls of active or inactive are those of the source. No stated cut-off is given here; in the data, active = GI50 up to about 1.1 µM and inactive = higher.

Key:
Assay in all cases: NCI-60 cell line screen, 48 h
[1] = system: A498
[2] = system: A549
[3] = system: COLO 205
[4] = system: DU-145
[5] = system: EKVX
[6] = system: HCT-15
[7] = system: Hs-578T
[8] = system: M14
[9] = system: MCF7
[10] = system: MOLT-4
[11] = system: Malme-3M
[12] = system: NCI-H23
[13] = system: OVCAR-4
[14] = system: OVCAR-8
[15] = system: SF-295
[16] = system: SNB-75
[17] = system: SW-620
[18] = system: UACC-257
[19] = system: SK-MEL-2

| Structure (SMILES) | GI50 [1] | GI50 [2] | GI50 [3] | GI50 [4] | GI50 [5] | GI50 [6] | GI50 [7] | GI50 [8] | GI50 [9] | GI50 [10] | GI50 [11] | GI50 [12] | GI50 [13] | GI50 [14] | GI50 [15] | GI50 [16] | GI50 [17] | GI50 [18] | GI50 [19] |
| --- | --- | --- | --- | --- | --- | --- | --- | --- | --- | --- | --- | --- | --- | --- | --- | --- | --- | --- | --- |
| CC(C)/C(Cl)=N\OC(NC(=O)P(=O)(c1ccccc1)c1ccccc1)(C(F)(F)F)C(F)(F)F | 14.9 µM (inactive) | 5.15 µM (inactive) | 11.7 µM (inactive) | 11.1 µM (inactive) | 20 µM (inactive) | 15.9 µM | 23.9 µM (inactive) | 4.14 µM (inactive) | 13.3 µM (inactive) | 8.05 µM (inactive) | 7.52 µM (inactive) | 2.99 µM (inactive) | 5 µM (inactive) | 13 µM (inactive) | 11.6 µM (inactive) | < 0.01 µM (active) | 21.7 µM (inactive) | 17.8 µM (inactive) | – |
| CCCCCCCCCCCCC(=O)NCC(=O)NC(Cc1ccccc1)C(=O)Oc1ccc([N+](=O)[O-])cc1 (centres undefined) | > 100 µM (inactive) | > 100 µM (inactive) | 16.7 µM (inactive) | > 100 µM (inactive) | 70.6 µM (inactive) | 38.1 µM | 75.3 µM (inactive) | 49.1 µM (inactive) | 57.5 µM (inactive) | – | – | 57.7 µM (inactive) | – | 48.2 µM (inactive) | 50.4 µM (inactive) | 18.5 µM (inactive) | 39.9 µM (inactive) | > 100 µM (inactive) | > 100 µM (inactive) |
| O=C(CN1CCOCC1)NC1=Nc2ncccc2C(=O)NN1 | > 10 µM (inactive) | > 10 µM (inactive) | – | > 10 µM (inactive) | > 10 µM (inactive) | > 10 µM | > 10 µM (inactive) | > 10 µM (inactive) | > 10 µM (inactive) | > 10 µM (inactive) | > 10 µM (inactive) | > 10 µM (inactive) | – | > 10 µM (inactive) | > 10 µM (inactive) | > 10 µM (inactive) | > 10 µM (inactive) | > 10 µM (inactive) | > 10 µM (inactive) |
| O=C1Nc2ccccc2C(=O)/C1=C/NC(=S)NC1CCCCC1 | > 100 µM (inactive) | > 100 µM (inactive) | > 100 µM (inactive) | > 100 µM (inactive) | > 100 µM (inactive) | > 100 µM | > 100 µM (inactive) | > 100 µM (inactive) | > 100 µM (inactive) | > 100 µM (inactive) | – | > 100 µM (inactive) | > 100 µM (inactive) | > 100 µM (inactive) | > 100 µM (inactive) | > 100 µM (inactive) | > 100 µM (inactive) | > 100 µM (inactive) | > 100 µM (inactive) |
| CCN(CC)C1Oc2cc3c(cc2C(c2ccc(OC)cc2)C1C)OCO3 (centres undefined) | 19.7 µM (inactive) | 22.6 µM (inactive) | 17.6 µM (inactive) | 25.6 µM (inactive) | 18.3 µM (inactive) | 18.9 µM | 18.7 µM (inactive) | 21.2 µM (inactive) | 20.9 µM (inactive) | 17.6 µM (inactive) | 18.3 µM (inactive) | 21.8 µM (inactive) | – | 19.5 µM (inactive) | 21.7 µM (inactive) | 20.3 µM (inactive) | 30.3 µM (inactive) | 15.9 µM (inactive) | 17.6 µM (inactive) |
| CCN1c2nc3ccccc3nc2N(CC)c2nc3ccccc3nc21 | 57.3 µM (inactive) | 88.7 µM (inactive) | 82.2 µM (inactive) | 65.8 µM (inactive) | 19.1 µM (inactive) | 34.1 µM | 71.4 µM (inactive) | 61.9 µM (inactive) | 96.4 µM (inactive) | 41.8 µM (inactive) | 70.8 µM (inactive) | 49.1 µM (inactive) | – | 60.1 µM (inactive) | 39.7 µM (inactive) | > 10 µM (inactive) | 30.7 µM (inactive) | > 10 µM (inactive) | > 100 µM (inactive) |
| Fc1ccccc1C1SCC2=Nc3ccccc3CN21 (centres undefined) | > 100 µM (inactive) | > 100 µM (inactive) | > 100 µM (inactive) | > 100 µM (inactive) | > 100 µM (inactive) | > 100 µM | > 100 µM (inactive) | > 100 µM (inactive) | 80.2 µM (inactive) | > 100 µM (inactive) | – | > 100 µM (inactive) | > 100 µM (inactive) | > 100 µM (inactive) | 70.8 µM (inactive) | > 100 µM (inactive) | > 100 µM (inactive) | > 100 µM (inactive) | 43.6 µM (inactive) |
| C/C(=C\CNc1nc(Cl)nc2[nH]cnc12)CO | > 100 µM (inactive) | > 100 µM (inactive) | > 100 µM (inactive) | > 100 µM (inactive) | > 100 µM (inactive) | – | > 100 µM (inactive) | > 100 µM (inactive) | > 100 µM (inactive) | > 100 µM (inactive) | > 100 µM (inactive) | > 100 µM (inactive) | > 100 µM (inactive) | > 100 µM (inactive) | > 100 µM (inactive) | 96.4 µM (inactive) | > 100 µM (inactive) | > 100 µM (inactive) | – |
| c1ccc(-c2csc3c2-n2cccc2C3N2CCCC2)cc1 (centres undefined) | 76 µM (inactive) | 26.4 µM (inactive) | > 10 µM (inactive) | 95.3 µM (inactive) | 13.8 µM (inactive) | 93.8 µM | 62.1 µM (inactive) | – | 30.5 µM (inactive) | 42.3 µM (inactive) | 23.9 µM (inactive) | 20.9 µM (inactive) | 34.4 µM (inactive) | 26.8 µM (inactive) | 23.8 µM (inactive) | 14.9 µM (inactive) | 44.2 µM (inactive) | 7.36 µM (inactive) | > 100 µM (inactive) |
| COc1cccc(-c2ccc3c4c2O[C@H]2C(=O)CC[C@@]5(O)[C@@H](C3)N(CC3CC3)CC[C@]425)c1 | 18.7 µM (inactive) | 18.2 µM (inactive) | 13 µM (inactive) | 24.4 µM (inactive) | 17.1 µM (inactive) | 13.6 µM | 12.3 µM (inactive) | 14.5 µM (inactive) | 16 µM (inactive) | 10.2 µM (inactive) | 20.9 µM (inactive) | 24.9 µM (inactive) | 15.1 µM (inactive) | 18.5 µM (inactive) | 18.4 µM (inactive) | – | 12.2 µM (inactive) | 25.9 µM (inactive) | 19 µM (inactive) |
| COc1cc(OC2OC(CO)C(O)C(O)C2O)c2c(c1)O[C@@H]1[C@H](O)Oc3cc(OC)c(OC)cc3[C@]1(O)C2=O (some centres undefined) | > 25 µM (inactive) | > 25 µM (inactive) | > 25 µM (inactive) | > 25 µM (inactive) | > 25 µM (inactive) | > 25 µM | > 25 µM (inactive) | > 25 µM (inactive) | > 25 µM (inactive) | > 25 µM (inactive) | – | > 25 µM (inactive) | > 25 µM (inactive) | > 25 µM (inactive) | > 25 µM (inactive) | > 25 µM (inactive) | > 25 µM (inactive) | > 25 µM (inactive) | > 25 µM (inactive) |
| CCOC(=O)N(C)CCC1CC=CC(=O)C1c1cccc(OC)c1OC (centres undefined) | 33.3 µM (inactive) | 25.4 µM (inactive) | 4 µM (inactive) | 12.1 µM (inactive) | 25.8 µM (inactive) | 14 µM | 71.4 µM (inactive) | 19.5 µM (inactive) | 16.9 µM (inactive) | 22.5 µM (inactive) | 22.9 µM (inactive) | 14 µM (inactive) | 28 µM (inactive) | 21.3 µM (inactive) | 31 µM (inactive) | – | 20.9 µM (inactive) | 13.4 µM (inactive) | 13.7 µM (inactive) |
| CC(C)(C)CNCCCNc1ccc(Cl)cc1 | 14.8 µM (inactive) | > 100 µM (inactive) | 21 µM (inactive) | > 100 µM (inactive) | 48.6 µM (inactive) | 93.1 µM | 40.1 µM (inactive) | 23 µM (inactive) | 11.9 µM (inactive) | 3.33 µM (inactive) | 22 µM (inactive) | > 100 µM (inactive) | 60.8 µM (inactive) | > 100 µM (inactive) | 17.1 µM (inactive) | – | > 100 µM (inactive) | 22.8 µM (inactive) | 24 µM (inactive) |
| O=C(Nc1cccc(F)c1)c1cc2ccc(O)cc2o/c1=N\c1cccc(F)c1 | 33 µM (inactive) | 3.97 µM (inactive) | > 100 µM (inactive) | 4.27 µM (inactive) | 3.78 µM (inactive) | 3.15 µM | 3.09 µM (inactive) | 7.73 µM (inactive) | 3.58 µM (inactive) | 2.45 µM (inactive) | 4.37 µM (inactive) | 2.34 µM (inactive) | 3.59 µM (inactive) | 2.31 µM (inactive) | 13.6 µM (inactive) | – | 4.27 µM (inactive) | 9.68 µM (inactive) | 8.2 µM (inactive) |
| CC(=O)O[C@H]1C(=O)[C@@]2(C)[C@H]([C@H](OC(=O)c3ccccc3)[C@]3(O)C[C@H](OC(=O)[C@H](O)[C@@H](NC(=O)c4cccc(N=[N+]=[N-])c4)c4ccccc4)C(C)=C1C3(C)C)[C@]1(OC(C)=O)CO[C@@H]1C[C@@H]2O | 0.0408 µM (active) | 0.0108 µM (active) | 0.00301 µM (active) | 0.0208 µM (active) | > 7.59 µM (inactive) | 0.662 µM | < 0.0025 µM (active) | 0.00908 µM (active) | < 0.0025 µM (active) | 0.00453 µM (active) | 0.00711 µM (active) | 0.00641 µM (active) | 6.05 µM (inactive) | 0.00798 µM (active) | 0.0247 µM (active) | 0.0173 µM (active) | 0.00621 µM (active) | 0.00621 µM (active) | – |
| COc1c(OC/C=C(\C)CCC=C(C)C)ccc2ccc(=O)oc12 [COLLININ] | > 100 µM (inactive) | > 100 µM (inactive) | > 100 µM (inactive) | > 100 µM (inactive) | 83.9 µM (inactive) | 64.9 µM | 90.4 µM (inactive) | > 100 µM (inactive) | > 100 µM (inactive) | 56.5 µM (inactive) | – | > 100 µM (inactive) | 51.8 µM (inactive) | > 100 µM (inactive) | > 100 µM (inactive) | > 100 µM (inactive) | > 100 µM (inactive) | > 100 µM (inactive) | > 100 µM (inactive) |
